The text below walks through data of patent US9266848B2, “4-alkoxy-N-(2-hydroxycarbamoyl-2-piperidinyl-ethyl)-benzamide compounds as selective TACE-inhibitors for the treatment of inflammatory diseases” (GALDERMA RESEARCH & DEVELOPMENT, priority 2009, dated 2016).

In one data set the target is TACE enzyme (Homo sapiens, UniProt P78536). The experiment in a line: Enzymatic test of TACE inhibition. The format is biochemical.
The next data set concerns the target MMP1 (Homo sapiens (Human), UniProt P03956). Description: Selectivity test MMP1. The format is biochemical.
In another data set the target is ADAM10 (Homo sapiens (Human), UniProt O14672). Description: Selectivity test ADAM10. The format is biochemical.
Sequence of ADAM10 (O14672 214-748, species assumed): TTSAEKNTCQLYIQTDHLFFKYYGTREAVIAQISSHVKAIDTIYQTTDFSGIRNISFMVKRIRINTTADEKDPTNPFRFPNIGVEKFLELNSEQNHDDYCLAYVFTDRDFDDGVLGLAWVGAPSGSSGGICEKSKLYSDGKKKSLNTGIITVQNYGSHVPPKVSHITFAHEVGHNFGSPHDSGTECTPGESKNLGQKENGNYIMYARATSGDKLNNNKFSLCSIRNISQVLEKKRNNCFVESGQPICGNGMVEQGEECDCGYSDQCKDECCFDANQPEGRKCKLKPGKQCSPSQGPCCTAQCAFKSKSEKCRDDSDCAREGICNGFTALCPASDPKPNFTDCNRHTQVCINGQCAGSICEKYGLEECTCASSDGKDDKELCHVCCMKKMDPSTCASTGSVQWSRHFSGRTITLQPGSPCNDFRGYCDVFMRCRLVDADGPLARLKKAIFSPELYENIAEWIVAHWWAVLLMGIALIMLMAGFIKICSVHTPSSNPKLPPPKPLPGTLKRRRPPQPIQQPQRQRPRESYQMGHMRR
In a further data set the target is MMP3 (Homo sapiens (Human), UniProt P08254). The experiment in a line: Selectivity test MMP3. In kind it is biochemical.
Sequence of MMP3 (P08254 100-477, species assumed): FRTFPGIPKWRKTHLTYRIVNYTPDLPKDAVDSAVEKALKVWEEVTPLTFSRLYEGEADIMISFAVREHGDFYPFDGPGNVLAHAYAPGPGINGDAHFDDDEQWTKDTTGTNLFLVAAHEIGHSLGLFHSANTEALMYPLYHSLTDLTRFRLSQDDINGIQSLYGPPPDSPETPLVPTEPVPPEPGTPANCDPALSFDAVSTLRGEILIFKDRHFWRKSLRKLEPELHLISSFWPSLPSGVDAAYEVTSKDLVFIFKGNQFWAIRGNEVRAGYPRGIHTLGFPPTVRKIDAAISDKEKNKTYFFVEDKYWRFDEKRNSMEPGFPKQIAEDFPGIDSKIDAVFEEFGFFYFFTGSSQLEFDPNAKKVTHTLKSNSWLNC

SMILES strings stand for the structures.

Sequence of TACE enzyme (P78536 215-824 limits assumed): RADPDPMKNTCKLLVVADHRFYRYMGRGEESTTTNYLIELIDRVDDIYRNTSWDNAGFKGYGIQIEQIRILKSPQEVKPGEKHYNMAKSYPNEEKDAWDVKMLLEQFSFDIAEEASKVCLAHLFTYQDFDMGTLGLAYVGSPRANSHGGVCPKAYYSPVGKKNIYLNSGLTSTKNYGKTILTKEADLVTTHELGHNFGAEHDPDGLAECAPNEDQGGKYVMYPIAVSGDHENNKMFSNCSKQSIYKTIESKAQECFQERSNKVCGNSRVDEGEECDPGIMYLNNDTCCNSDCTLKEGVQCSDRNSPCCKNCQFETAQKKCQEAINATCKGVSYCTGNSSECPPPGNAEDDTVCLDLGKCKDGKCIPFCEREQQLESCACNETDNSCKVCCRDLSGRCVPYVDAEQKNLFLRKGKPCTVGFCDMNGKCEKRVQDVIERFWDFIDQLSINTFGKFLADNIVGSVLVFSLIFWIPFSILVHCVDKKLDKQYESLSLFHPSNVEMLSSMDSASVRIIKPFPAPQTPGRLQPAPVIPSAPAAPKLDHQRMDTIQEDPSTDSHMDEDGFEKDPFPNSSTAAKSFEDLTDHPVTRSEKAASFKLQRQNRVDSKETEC
Sequence of MMP1 (P03956 100-469, species assumed): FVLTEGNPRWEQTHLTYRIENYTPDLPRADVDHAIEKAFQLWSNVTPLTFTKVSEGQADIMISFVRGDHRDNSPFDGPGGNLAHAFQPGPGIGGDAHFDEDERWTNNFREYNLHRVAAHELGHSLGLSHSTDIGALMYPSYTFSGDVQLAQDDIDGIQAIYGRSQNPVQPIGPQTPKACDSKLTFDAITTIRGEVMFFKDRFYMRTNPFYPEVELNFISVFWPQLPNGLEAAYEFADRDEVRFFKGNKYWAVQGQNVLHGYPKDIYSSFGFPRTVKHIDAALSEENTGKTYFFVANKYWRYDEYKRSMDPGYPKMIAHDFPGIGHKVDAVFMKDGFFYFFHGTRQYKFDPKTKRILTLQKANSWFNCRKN
Method for ADAM10: (§1) The products are dissolved so as to obtain a concentration of 10 mM in DMSO.
The substrate is used at 40 μM.
(§2) The enzymes are purchased from Calbiochem.
Method for MMP1: as §1
The substrate is used at 40 μM.
as §2
Method for MMP3: as §1
The substrate is used at 40 μM.
as §2
Method for TACE enzyme: as §1
The substrate is used at 40 μM.

For orientation: IC50 means the midpoint of a concentration-inhibition curve. High values mean a need for much substance, low ones inhibition by little substance. With `O=C(NC[C@@H](C(=O)NO)N1CCOCC1)c1ccc(OCc2ccnc(-c3ccccc3C(F)(F)F)c2)cc1` [Example 10, N—((S)-2-hydroxycarbamoyl-2-morpholin-4-ylethyl)-4-[2-(2-trifluoromethylphenyl)pyridin-4-yl-methoxy]benzamide], the “% TACE inhibition at 10 μM” value at TACE enzyme is given as 90%. At TACE enzyme (fluorescent substrate 40 μM), this compound came in with an IC50 of 900 nM.
The like results for `O=C(NC[C@@H](C(=O)NO)N1CCOCC1)c1ccc(OCc2ccncc2)cc1` [Example 9, N—((S)-2-hydroxycarbamoyl-2-morpholin-4-ylethyl)-4-(pyridin-4-ylmethoxy)benzamide] were, in that order, 92% and 428 nM.
For `O=C(NC[C@@H](C(=O)NO)N1CCCCC1)c1ccc(OCc2cc(Cl)nc(Cl)c2)cc1` [Example 3, 4-(2,6-dichloropyridin-4-ylmethoxy)-N—((S)-2-hydroxycarbamoyl-2-piperidin-1-ylethyl)benzamide], in that order: 97% and 255 nM.
As to `Cc1cc(COc2ccc(C(=O)NC[C@@H](C(=O)NO)N3CCCCC3)cc2)c2ccccc2n1` [Example 2, N—((S)-2-hydroxycarbamoyl-2-piperidin-1-yl-ethyl)-4-(2-methylquinolin-4-ylmethoxy)benzamide], on TACE enzyme, the “% TACE inhibition at 10 μM” value turned out to be 100%. Besides, the IC50 was 71 nM at TACE enzyme (fluorescent substrate 40 μM), 71 nM at TACE enzyme (selectivity table), 9950 nM at MMP1 and 6400 nM against ADAM10.
In the case of `CC#CCOc1ccc(C(=O)NC[C@@H](C(=O)NO)N2CCCCC2)cc1` [Example 1, 4-but-2-ynyloxy-N—((S)-2-hydroxycarbamoyl-2-piperidin-1-ylethyl)benzamide], at TACE enzyme, the “% TACE inhibition at 10 μM” value was found to be 96%. The IC50 at TACE enzyme (fluorescent substrate 40 μM) came to 9 nM.
The like results for `Cc1ccc(COc2ccc(C(=O)NC[C@@H](C(=O)NO)N3CCCCC3)cc2)c2ccccc12` [Example 7, N—((S)-2-hydroxycarbamoyl-2-piperidin-1-yl-ethyl)-4-(4-methylnaphthalen-1-ylmethoxy)benzamide] were, in that order, 90% and 91 nM.
What is called melting point is the temperature, or range, at which the solid turns liquid. `O=C(NC[C@@H](C(=O)NO)N1CCCCC1)c1ccc(OCc2ccnc(Br)c2)cc1` [Example 8, 4-(2-bromopyridin-4-ylmethoxy)-N—((S)-2-hydroxycarbamoyl-2-piperidin-1-ylethyl)benzamide] gave a melting point of 150 °C. Moreover, the “% TACE inhibition at 10 μM” value at TACE enzyme came out at 91%.
For the compound `CCN(CC)[C@@H](CNC(=O)c1ccc(OCc2cc(C)nc3ccccc23)cc1)C(=O)NO` [Example 11, N—((S)-2-diethylamino-2-hydroxycarbamoyl-ethyl)-4-(2-methylquinolin-4-ylmethoxy)benzamide], the “% TACE inhibition at 10 μM” value on TACE enzyme was 91%. For the same compound, the IC50 against TACE enzyme (fluorescent substrate 40 μM) and against TACE enzyme (selectivity table) was 232 nM in each case.
As for `O=C(NC[C@@H](C(=O)NO)N1CCCCC1)c1ccc(OCc2ccnc(-c3ccccc3)c2)cc1` [Example 4, N—((S)-2-hydroxycarbamoyl-2-piperidin-1-yl-ethyl)-4-(2-phenylpyridin-4-ylmethoxy)benzamide], the “% TACE inhibition at 10 μM” value on TACE enzyme stood at 100%.
On to `O=C(NC[C@@H](C(=O)NO)N1CCCCC1)c1ccc(OCc2ccncc2)cc1` [Example 5, N—((S)-2-hydroxycarbamoyl-2-piperidin-1-yl-ethyl)-4-(pyridin-4-ylmethoxy)benzamide], for which the “% TACE inhibition at 10 μM” value at TACE enzyme amounted to 93%. Also, the IC50 against TACE enzyme (fluorescent substrate 40 μM) came to 108 nM; on TACE enzyme (selectivity table), 108 nM; against MMP3, 6120 nM; on ADAM10 it was 3090 nM.
